Measurements as given in article PMC5392419 (Pharmacological research, 2017).

Legend:
[1] = target: T1, ATP-binding cassette subfamily G member 2 (ABCG2) (Homo sapiens, UniProt Q9UNQ0); assay: [3H]-mitoxantrone accumulation and efflux assay in ABCG2-overexpressing cells; format: cell-based
T1 sequence (Q9UNQ0 1-655): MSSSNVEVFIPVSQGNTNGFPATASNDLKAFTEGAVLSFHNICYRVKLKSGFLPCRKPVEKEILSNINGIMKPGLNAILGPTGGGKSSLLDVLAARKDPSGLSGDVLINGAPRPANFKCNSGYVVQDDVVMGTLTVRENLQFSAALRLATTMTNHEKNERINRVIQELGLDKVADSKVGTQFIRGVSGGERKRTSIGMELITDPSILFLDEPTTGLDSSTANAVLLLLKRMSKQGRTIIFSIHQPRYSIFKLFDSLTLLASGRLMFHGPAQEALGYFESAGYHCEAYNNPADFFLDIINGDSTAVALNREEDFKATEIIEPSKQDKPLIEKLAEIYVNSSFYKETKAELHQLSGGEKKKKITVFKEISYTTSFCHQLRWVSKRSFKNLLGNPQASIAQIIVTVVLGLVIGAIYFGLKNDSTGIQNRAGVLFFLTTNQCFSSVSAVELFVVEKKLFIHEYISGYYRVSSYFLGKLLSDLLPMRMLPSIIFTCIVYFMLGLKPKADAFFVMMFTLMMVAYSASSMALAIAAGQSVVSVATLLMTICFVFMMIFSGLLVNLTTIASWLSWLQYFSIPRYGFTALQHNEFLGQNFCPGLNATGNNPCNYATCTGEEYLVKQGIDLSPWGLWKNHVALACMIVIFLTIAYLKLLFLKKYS

[2] = target: T1, ATP-binding cassette subfamily G member 2 (ABCG2); assay: biochemical

| SMILES | [3H]-mitoxantrone accumulation and efflux assay in ABCG2-overexpressing cells (1) [1] | EC50 [2] |
| --- | --- | --- |
| COc1ccc2c3c([nH]c2c1)[C@H](C=C(C)C)N1C(=O)[C@@H]2CCCN2C(=O)[C@@H]1C3 [Fumitremorgin C] | efficacy of cabozantinib on increasing intracellular accumulation of [^3H]-MX in resistant cell line is comparable to that of FTC | – |
| COc1cc2nccc(Oc3ccc(NC(=O)C4(C(=O)Nc5ccc(F)cc5)CC4)cc3)c2cc1OC [cabozantinib] | – | 734 nM |
